Legend:
[1] = test system: Herpes Simplex Type 1 virus; assay: Antiviral activity on HSV type 1 in Vero cells, cell viability by MTS, viral inhibition calculated; type: cell-based; conditions: tested at 0.0005, 0.001 and 0.002%, HSV-1 dilutions 10^-2 to 10^-5
Procedure: Vero cells and Herpes Simplex Type 1 virus were used in order to observe the activity of the antiviral gel formulation; which is composed of a mixture of sodium pentaborate pentahydrate chlorhexidine and poloxamer; on Herpes Simplex Type 1 virus. Virus stock dilutions were prepared and used for the analysis. Five different concentrations were prepared from the main stock up to 10^−5 concentration and among these concentrations, the dilution of 10^−1 concentration was cancelled since no viable cell was observed. The other antiviral analyses were made at four different concentration values ranging from 10^−2 to 10^−5. Chlorhexidine was applied at three different concentrations: 0.0005-0.001-0.002%.

[2] = test system: HSV-1 virus; conditions: in vitro, vero cells; cited from earlier work
[3] = test system: Vero cells; conditions: chlorhexidine at 0.002%; known from reference [12]; cited from earlier work
[4] = test system: Herpes simplex virus; conditions: topically applied on infected skin, animal studies; cited from earlier work

[H]/N=C(\N/C(=N/[H])NCCCCCCNC(=N)NC(=N)Nc1ccc(Cl)cc1)Nc1ccc(Cl)cc1 [chlorhexidine]
concentration of chlorhexidine alone at which the best antiviral activity was observed [1]: 0.002%
inhibition of viral replication of HSV-1 [2]: inhibits viral replication
cytotoxic effect [3]: cytotoxic effect
inhibition of virus proliferation and lesion formation [4]: inhibits the virus from proliferating and forming lesions

Reference: patent publication US9962405B2, “Antiviral gel combination” (YEDITEPE UNIVERSITESI, priority 2013, dated 2018)
